In patent publication US20230263822A1, “MODULATION OF FACTOR 11 EXPRESSION” (Ionis Pharmaceuticals, Inc., priority 2008, published 2023):

Tests used:
[1] = system: human Factor 11 mRNA; test: Dose-dependent inhibition of human Factor 11 in cyano primary hepatocytes, electroporation (Example 6); assay type: cell-based; details: ~16 hours
Outline: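 Cyno primary hepatocytes (35,000/well) were electroporated with antisense oligonucleotide at 0.74–180 nM and treated for about 16 hours. Human Factor 11 mRNA was quantified by qRT-PCR (primer probe set RTS 2966) and normalized to RIBOGREEN total RNA. Values are percent inhibition versus untreated cells.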

[2] = system: Factor 11 protein; test: Factor 11 protein in monkey plasma by sandwich ELISA (Example 46); assay type: in vivo, cynomolgus monkeys; details: 25 mg/kg subcutaneously
Outline: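 Monkeys (2 male, 2 female per group) dosed s.c. with antisense oligonucleotide at 25 mg/kg, three times weekly in week 1 then twice weekly through week 8; PBS controls. Plasma Factor 11 measured by sandwich ELISA (1:50 dilution, OPD, 490 nm); expressed as % reduction versus PBS.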

[3] = system: human Factor 11 mRNA; test: Dose-dependent inhibition of human Factor 11 in HepB3 cells, lipofectin (Example 7); assay type: cell-based; details: for percent inhibition of Factor 11 mRNA relative to untreated control cells: ~16 hours
Outline: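 Antisense oligonucleotides at 2.3, 4.7, 9.4, 18.75, 37.5 and 75 nM were transfected with lipofectin into cells plated at 4,000 per well and left for about 16 h. Factor 11 mRNA was measured by qRT-PCR (primer probe set RTS 2966) and normalized to RIBOGREEN total RNA. Values are percent inhibition relative to untreated cells.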

[4] = Tolerability in CD1 mice: organ weight (Example 33); assay type: in vivo; details: 50 mg/kg s.c. twice a week, vs PBS control, normalized to body weight
Method: Three days after the last dose was administered to all groups, the mice were sacrificed.

[5] = system: human Factor 11 mRNA; test: Dose-dependent inhibition of human Factor 11 in HepG2 cells, lipofectin 2.34-75 nM (Example 5); assay type: cell-based; details: for percent inhibition of human Factor 11 mRNA relative to untreated control cells: ~16 hours
Outline: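 Antisense oligonucleotides transfected with lipofectin at 2.34–75 nM into cells seeded at 10,000/well, treated ~16 h. Factor 11 mRNA quantified by real-time PCR (primer probe set RTS 2966), normalized to RIBOGREEN total RNA; percent inhibition relative to untreated cells.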

[6] = Tolerability in Sprague-Dawley rats: body weight and organ weight (Example 35); assay type: in vivo; details: 50 mg/kg s.c. twice per week for 6 weeks; for Percent change: Body weight: percent change over the weights at the start of the study; for Percent change in organ weight: Kidney / Percent change in organ weight: Liver / Percent change in organ weight: Spleen: vs saline control, normalized to body weight
Text: Urine samples were taken before the start of treatment.
The body weights are presented in Table 71 and are expressed as a percent change over the weights taken at the start of the study.

Substance: 416850 (antisense TGCACAGTTTCTGGCAGGCC; 5-10-5 gapmer, further chemistry not given here) [compound 416850]
- percent inhibition of human Factor 11 mRNA relative to untreated control cells ([1]; 0.74 nM): 2%
- percent inhibition of human Factor 11 mRNA relative to untreated control cells ([1]; 2.2 nM): 20%
- percent inhibition of human Factor 11 mRNA relative to untreated control cells ([1]; 6.7 nM): 24%
- percent inhibition of human Factor 11 mRNA relative to untreated control cells ([1]; 20 nM): 65%
- percent inhibition of human Factor 11 mRNA relative to untreated control cells ([1]; 60 nM): 69%
- percent inhibition of human Factor 11 mRNA relative to untreated control cells ([1]; 180 nM): 67%
- Inhibition of Factor 11 protein relative to the PBS control (percentage reduction) ([2]; Day 10, plasma): 20%
- Inhibition of Factor 11 protein relative to the PBS control (percentage reduction) ([2]; Day 17, plasma): 31%
- Inhibition of Factor 11 protein relative to the PBS control (percentage reduction) ([2]; Day 24, plasma): 38%
- Inhibition of Factor 11 protein relative to the PBS control (percentage reduction) ([2]; Day 31, plasma): 52%
- Inhibition of Factor 11 protein relative to the PBS control (percentage reduction) ([2]; Day 38, plasma): 51%
- Inhibition of Factor 11 protein relative to the PBS control (percentage reduction) ([2]; Day 45, plasma): 53%
- Inhibition of Factor 11 protein relative to the PBS control (percentage reduction) ([2]; Day 52, plasma): 53%
- Inhibition of Factor 11 protein relative to the PBS control (percentage reduction) ([2]; Day 55, plasma): 58%
- Inhibition of Factor 11 protein relative to the PBS control (percentage reduction) ([2]; Day −5, plasma): 0%
- Inhibition of Factor 11 protein relative to the PBS control (percentage reduction) ([2]; Day −14, plasma): 0%
- IC50 [3]: 13 nM
- percent inhibition of Factor 11 mRNA relative to untreated control cells ([3]; 2.3 nM): 22%
- percent inhibition of Factor 11 mRNA relative to untreated control cells ([3]; 4.7 nM): 32%
- percent inhibition of Factor 11 mRNA relative to untreated control cells ([3]; 9.4 nM): 43%
- percent inhibition of Factor 11 mRNA relative to untreated control cells ([3]; 18.75 nM): 56%
- percent inhibition of Factor 11 mRNA relative to untreated control cells ([3]; 37.5 nM): 75%
- percent inhibition of Factor 11 mRNA relative to untreated control cells ([3]; 75 nM): 60%
- Percent change in kidney weight ([4]; 2 weeks): −0%
- Percent change in liver weight ([4]; 2 weeks): +5%
- Percent change in spleen weight ([4]; 2 weeks): −4%
- Percent change in kidney weight ([4]; 4 weeks): −12%
- Percent change in liver weight ([4]; 4 weeks): +3%
- Percent change in spleen weight ([4]; 4 weeks): +6%
- Percent change in kidney weight ([4]; 6 weeks): −11%
- Percent change in liver weight ([4]; 6 weeks): +6%
- Percent change in spleen weight ([4]; 6 weeks): +48%
- IC50 [5]: 13 nM
- percent inhibition of human Factor 11 mRNA relative to untreated control cells ([5]; 2.34 nM): 24%
- percent inhibition of human Factor 11 mRNA relative to untreated control cells ([5]; 4.69 nM): 31%
- percent inhibition of human Factor 11 mRNA relative to untreated control cells ([5]; 9.375 nM): 49%
- percent inhibition of human Factor 11 mRNA relative to untreated control cells ([5]; 18.75 nM): 55%
- percent inhibition of human Factor 11 mRNA relative to untreated control cells ([5]; 37.5 nM): 70%
- percent inhibition of human Factor 11 mRNA relative to untreated control cells ([5]; 75 nM): 77%
- Percent change: Body weight [6]: −33%
- Percent change in organ weight: Kidney [6]: +47%
- Percent change in organ weight: Liver [6]: +23%
- Percent change in organ weight: Spleen [6]: +354%

Substance: 416858 (antisense ACGGCATTGGTGCACAGTTT; 5-10-5 gapmer, further chemistry not given here) [compound 416858]
- percent inhibition of human Factor 11 mRNA relative to untreated control cells ([1]; 0.74 nM): 2%
- percent inhibition of human Factor 11 mRNA relative to untreated control cells ([1]; 2.2 nM): 13%
- percent inhibition of human Factor 11 mRNA relative to untreated control cells ([1]; 6.7 nM): 22%
- percent inhibition of human Factor 11 mRNA relative to untreated control cells ([1]; 20 nM): 44%
- percent inhibition of human Factor 11 mRNA relative to untreated control cells ([1]; 60 nM): 63%
- percent inhibition of human Factor 11 mRNA relative to untreated control cells ([1]; 180 nM): 68%
- Inhibition of Factor 11 protein relative to the PBS control (percentage reduction) ([2]; Day 10, plasma): 36%
- Inhibition of Factor 11 protein relative to the PBS control (percentage reduction) ([2]; Day 17, plasma): 49%
- Inhibition of Factor 11 protein relative to the PBS control (percentage reduction) ([2]; Day 24, plasma): 62%
- Inhibition of Factor 11 protein relative to the PBS control (percentage reduction) ([2]; Day 31, plasma): 68%
- Inhibition of Factor 11 protein relative to the PBS control (percentage reduction) ([2]; Day 38, plasma): 74%
- Inhibition of Factor 11 protein relative to the PBS control (percentage reduction) ([2]; Day 45, plasma): 79%
- Inhibition of Factor 11 protein relative to the PBS control (percentage reduction) ([2]; Day 52, plasma): 81%
- Inhibition of Factor 11 protein relative to the PBS control (percentage reduction) ([2]; Day 55, plasma): 81%
- Inhibition of Factor 11 protein relative to the PBS control (percentage reduction) ([2]; Day −5, plasma): 0%
- Inhibition of Factor 11 protein relative to the PBS control (percentage reduction) ([2]; Day −14, plasma): 4%
- IC50 [3]: 12 nM
- percent inhibition of Factor 11 mRNA relative to untreated control cells ([3]; 2.3 nM): 17%
- percent inhibition of Factor 11 mRNA relative to untreated control cells ([3]; 4.7 nM): 34%
- percent inhibition of Factor 11 mRNA relative to untreated control cells ([3]; 9.4 nM): 43%
- percent inhibition of Factor 11 mRNA relative to untreated control cells ([3]; 18.75 nM): 57%
- percent inhibition of Factor 11 mRNA relative to untreated control cells ([3]; 37.5 nM): 74%
- percent inhibition of Factor 11 mRNA relative to untreated control cells ([3]; 75 nM): 62%
- Percent change in kidney weight ([4]; 2 weeks): +1%
- Percent change in liver weight ([4]; 2 weeks): +7%
- Percent change in spleen weight ([4]; 2 weeks): −2%
- Percent change in kidney weight ([4]; 4 weeks): −18%
- Percent change in liver weight ([4]; 4 weeks): +1%
- Percent change in spleen weight ([4]; 4 weeks): +8%
- Percent change in kidney weight ([4]; 6 weeks): −10%
- Percent change in liver weight ([4]; 6 weeks): +10%
- Percent change in spleen weight ([4]; 6 weeks): +28%
- IC50 [5]: 11 nM
- percent inhibition of human Factor 11 mRNA relative to untreated control cells ([5]; 2.34 nM): 11%
- percent inhibition of human Factor 11 mRNA relative to untreated control cells ([5]; 4.69 nM): 35%
- percent inhibition of human Factor 11 mRNA relative to untreated control cells ([5]; 9.375 nM): 46%
- percent inhibition of human Factor 11 mRNA relative to untreated control cells ([5]; 18.75 nM): 61%
- percent inhibition of human Factor 11 mRNA relative to untreated control cells ([5]; 37.5 nM): 75%
- percent inhibition of human Factor 11 mRNA relative to untreated control cells ([5]; 75 nM): 77%
- Percent change: Body weight [6]: −21%
- Percent change in organ weight: Kidney [6]: +5%
- Percent change in organ weight: Liver [6]: +8%
- Percent change in organ weight: Spleen [6]: +187%
